Measurements published in the supplement of paper PMC10307832.

The cell lines below were run with C1CCC(CC1)N(CCNCCC2=C3C(=C(C=C2)O)NC(=O)CO3)C(=O)CCNCCC4=CC(=C(C=C4)Cl)Cl [AZ505] + C[C@@H](Oc1cc(-c2cnn(C3CCNCC3)c2)cnc1N)c1c(Cl)ccc(F)c1Cl [Crizotinib] (partner 1 µM) (assay: relative viability (nuclei count vs DMSO), 5 days (fraction); higher = more cells survive). Settings: first compound 0.08 µM.
How it was run: (§1)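 Relative viability is defined as nuclei in treated wells over nuclei in vehicle wells. Duplicate plates were run and medians reported. Lung cancer cell lines in 1536-well plates were dosed by pin tool one day after seeding, with one drug or with a fixed anchor-drug dose plus five library-drug doses (not always all listed) in √10 steps, and nuclei were counted after 5 days.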

Cell Line | relative viability
HCC-44 | 0.748
LU99A | 0.474
BEN | 0.789
HARA | 0.954
NCI-H322M | 0.93
LCLC-97TM1 | 0.503
NCI-H2009 | 0.989
A-427 | 0.771
NCI-H1734 | 0.66
NCI-H460 | 0.78
NCI-H2347 | 0.518
SW 1573 | 0.878
201T | 0.986
NCI-H1915 | 0.881
HCC-827 | 0.865
LXF-289 | 0.738
NCI-H23 | 0.502
NCI-H647 | 0.941
CAL-12T | 0.599
NCI-H1651 | 0.804
EPLC-272H | 0.714
NCI-H2228 | 0.373
NCI-H1792 | 0.734
NCI-H1355 | 1.06
NCI-H3122 | 0.255
NCI-H1437 | 0.801
NCI-H1755 | 0.767
NCI-H2023 | 0.641
HCC-15 | 0.791
PC-14 | 0.787

Same assay, conditions: first compound 0.253 µM

Cell Line | relative viability
HCC-44 | 0.772
LU99A | 0.592
BEN | 0.889
HARA | 0.89
HCC-78 | 0.397
NCI-H322M | 0.786
LCLC-97TM1 | 0.479
NCI-H2009 | 1.03
A-427 | 0.829
NCI-H661 | 0.941
NCI-H1734 | 0.657
NCI-H460 | 1.08
NCI-H2347 | 0.55
SW 1573 | 0.868
201T | 1.03
NCI-H1915 | 0.948
HCC-827 | 0.854
NCI-H647 | 1.15
CAL-12T | 0.753
NCI-H1651 | 0.82
EPLC-272H | 0.865
NCI-H2228 | 0.518
NCI-H1792 | 1.08
NCI-H1355 | 1.04
NCI-H3122 | 0.275
NCI-H1437 | 0.852
NCI-H1755 | 0.928
NCI-H2023 | 0.719
HCC-15 | 0.908
PC-14 | 0.805

Same assay, conditions: first compound 0.8 µM

Cell Line | relative viability
HCC-44 | 0.804
LU99A | 0.594
BEN | 0.854
HARA | 0.896
HCC-78 | 0.373
NCI-H322M | 0.878
LCLC-97TM1 | 0.478
NCI-H2009 | 0.976
A-427 | 0.766
NCI-H1734 | 0.591
NCI-H460 | 0.898
NCI-H2347 | 0.433
SW 1573 | 0.927
201T | 0.932
NCI-H1915 | 0.887
HCC-827 | 0.913

Cell Line | relative viability
LXF-289 | 0.812
NCI-H23 | 0.443
NCI-H647 | 0.993
CAL-12T | 0.535
NCI-H1651 | 0.874
EPLC-272H | 0.927
NCI-H2228 | 0.369
NCI-H1792 | 0.935
NCI-H1355 | 1.12
NCI-H3122 | 0.299
NCI-H1437 | 0.863
NCI-H1755 | 0.907
NCI-H2023 | 0.683
HCC-15 | 0.772
PC-14 | 0.934

Same assay, conditions: first compound 2.53 µM

Cell Line | relative viability
HCC-44 | 0.773
LU99A | 0.638
BEN | 0.816
HARA | 0.909
HCC-78 | 0.341
NCI-H322M | 0.828
LCLC-97TM1 | 0.709
NCI-H2009 | 1
A-427 | 0.837
NCI-H661 | 0.977
NCI-H1734 | 0.623
NCI-H460 | 0.784
NCI-H2347 | 0.443
SW 1573 | 0.733
201T | 1.01
NCI-H1915 | 0.827

Cell Line | relative viability
HCC-827 | 0.918
LXF-289 | 0.788
NCI-H23 | 0.638
NCI-H647 | 0.957
CAL-12T | 0.684
NCI-H1651 | 0.823
EPLC-272H | 0.985
NCI-H2228 | 0.467
NCI-H1792 | 0.928
NCI-H1355 | 1.02
NCI-H3122 | 0.268
NCI-H1437 | 0.927
NCI-H1755 | 0.87
NCI-H2023 | 0.795
HCC-15 | 0.844
PC-14 | 0.846

Same assay, conditions: first compound 8 µM

Cell Line | relative viability
HCC-44 | 0.791
LU99A | 0.575
BEN | 1.07
HARA | 0.948
HCC-78 | 0.389
NCI-H322M | 0.931
LCLC-97TM1 | 0.413
NCI-H2009 | 0.976
A-427 | 0.944
NCI-H661 | 0.942
NCI-H1734 | 0.658
NCI-H460 | 0.782
NCI-H2347 | 0.559
SW 1573 | 0.886
201T | 1.02
NCI-H1915 | 0.969

Cell Line | relative viability
HCC-827 | 0.948
LXF-289 | 0.762
NCI-H23 | 0.557
NCI-H647 | 1.25
CAL-12T | 0.563
NCI-H1651 | 0.885
EPLC-272H | 0.934
NCI-H2228 | 0.342
NCI-H1792 | 1.11
NCI-H1355 | 1.05
NCI-H3122 | 0.294
NCI-H1437 | 0.895
NCI-H1755 | 0.777
NCI-H2023 | 0.67
HCC-15 | 0.823
PC-14 | 0.95

These cell lines were tested with Cn1c(=O)n(-c2ccc(C(C)(C)C#N)cc2)c2c3cc(-c4cnc5ccccc5c4)ccc3ncc21 [Dactolisib] + COc1cccc2cc(-c3nc([C@H]4CC[C@H](C(=O)O)CC4)n4ncnc(N)c34)[nH]c12 [OSI-027] (partner 0.5 µM) in the same assay as above. Settings: first compound 0.002 µM.
How it was run: as §1

Cell Line | relative viability
HCC-44 | 0.492
LU99A | 0.294
BEN | 0.302
HARA | 0.576
HCC-78 | 0.439
NCI-H322M | 0.542
LCLC-97TM1 | 0.673
NCI-H2009 | 0.74
A-427 | 0.59
NCI-H661 | 0.701
NCI-H1734 | 0.561
NCI-H460 | 0.829
NCI-H2347 | 0.407
SW 1573 | 0.702
201T | 0.715
NCI-H1915 | 0.723

Cell Line | relative viability
HCC-827 | 0.8
LXF-289 | 0.93
NCI-H23 | 0.683
NCI-H647 | 0.734
CAL-12T | 0.894
NCI-H1651 | 0.783
EPLC-272H | 0.34
NCI-H2228 | 0.497
NCI-H1792 | 0.742
NCI-H1355 | 0.436
NCI-H3122 | 0.903
NCI-H1437 | 0.849
NCI-H1755 | 0.821
NCI-H2023 | 0.412
HCC-15 | 0.686
PC-14 | 0.863

Same assay, conditions: first compound 0.006325 µM

Cell Line | relative viability
HCC-44 | 0.559
LU99A | 0.327
BEN | 0.33
HARA | 0.525
HCC-78 | 0.411
NCI-H322M | 0.56
LCLC-97TM1 | 0.564
NCI-H2009 | 0.659
A-427 | 0.461
NCI-H661 | 0.759
NCI-H1734 | 0.594
NCI-H460 | 0.661
NCI-H2347 | 0.52
SW 1573 | 0.579
201T | 0.749
NCI-H1915 | 0.704

Cell Line | relative viability
HCC-827 | 0.774
LXF-289 | 0.865
NCI-H23 | 0.577
NCI-H647 | 0.863
CAL-12T | 0.635
NCI-H1651 | 0.665
EPLC-272H | 0.288
NCI-H2228 | 0.426
NCI-H1792 | 0.72
NCI-H1355 | 0.475
NCI-H3122 | 0.976
NCI-H1437 | 0.903
NCI-H1755 | 0.772
NCI-H2023 | 0.357
HCC-15 | 0.678
PC-14 | 0.755

Same assay, conditions: first compound 0.02 µM

Cell Line | relative viability
HCC-44 | 0.634
LU99A | 0.332
BEN | 0.302
HARA | 0.602
HCC-78 | 0.376
NCI-H322M | 0.562
LCLC-97TM1 | 0.542
NCI-H2009 | 0.754
A-427 | 0.47
NCI-H661 | 0.652
NCI-H1734 | 0.562
NCI-H460 | 0.615
NCI-H2347 | 0.635
SW 1573 | 0.5
201T | 0.682
NCI-H1915 | 0.716

Cell Line | relative viability
HCC-827 | 0.787
LXF-289 | 0.821
NCI-H23 | 0.564
NCI-H647 | 0.499
CAL-12T | 0.521
NCI-H1651 | 0.639
EPLC-272H | 0.356
NCI-H2228 | 0.417
NCI-H1792 | 0.654
NCI-H1355 | 0.455
NCI-H3122 | 0.948
NCI-H1437 | 0.883
NCI-H1755 | 0.8
NCI-H2023 | 0.344
HCC-15 | 0.683
PC-14 | 0.662

Same assay, conditions: first compound 0.06325 µM

Cell Line | relative viability
HCC-44 | 0.439
LU99A | 0.314
BEN | 0.32
HARA | 0.322
HCC-78 | 0.396
NCI-H322M | 0.535
LCLC-97TM1 | 0.717
NCI-H2009 | 0.404
A-427 | 0.375
NCI-H661 | 0.366
NCI-H1734 | 0.313
NCI-H460 | 0.119
NCI-H2347 | 0.41
SW 1573 | 0.199
201T | 0.747
NCI-H1915 | 0.535

Cell Line | relative viability
HCC-827 | 0.826
LXF-289 | 0.692
NCI-H23 | 0.308
NCI-H647 | 0.144
CAL-12T | 0.318
NCI-H1651 | 0.421
EPLC-272H | 0.334
NCI-H2228 | 0.186
NCI-H1792 | 0.391
NCI-H1355 | 0.328
NCI-H3122 | 0.739
NCI-H1437 | 0.834
NCI-H1755 | 0.683
NCI-H2023 | 0.15
HCC-15 | 0.473
PC-14 | 0.2

Same assay, conditions: first compound 0.2 µM

Cell Line | relative viability
HCC-44 | 0.466
LU99A | 0.276
BEN | 0.315
HARA | 0.264
HCC-78 | 0.332
NCI-H322M | 0.515
LCLC-97TM1 | 0.459
NCI-H2009 | 0.266
A-427 | 0.419
NCI-H661 | 0.339
NCI-H1734 | 0.247
NCI-H460 | 0.153
NCI-H2347 | 0.332
SW 1573 | 0.167
201T | 0.509
NCI-H1915 | 0.418

Cell Line | relative viability
HCC-827 | 0.759
LXF-289 | 0.684
NCI-H23 | 0.385
NCI-H647 | 0.184
CAL-12T | 0.239
NCI-H1651 | 0.323
EPLC-272H | 0.3
NCI-H2228 | 0.176
NCI-H1792 | 0.266
NCI-H1355 | 0.246
NCI-H3122 | 0.373
NCI-H1437 | 0.586
NCI-H1755 | 0.542
NCI-H2023 | 0.108
HCC-15 | 0.317
